Read-outs that look alike come from different tables or passages of the source.
Columns and labels:
[1] = in vivo; cited from earlier work
[2] = Solubility of naltrexone in adhesive matrix; assay type: physicochemical
From the text: […]. Adhesive matrices having such Hildebrand solubility parameters are typically, although not necessarily polyacrylate copolymers. […].

[3] = in vivo, cited from earlier work

Structure (SMILES) | mean elimination half-life [1] | solubility of naltrexone in adhesive ([2]; in DURO-TAK® 87-900A) | solubility of naltrexone in adhesive ([2]; in DURO-TAK® 87-2510) | safety statement [3] | safety statement ([3]; listed as Naltrexone)
Oc1ccc2c3c1O[C@H]1[C@H](O)CC[C@@]4(O)[C@@H](C2)N(CC2CC2)CC[C@]314 [6-β-naltrexol] | thirteen |  |  |  | 
O=C1CC[C@@]2(O)[C@H]3Cc4ccc(O)c5c4[C@@]2(CCN3CC2CC2)[C@H]1O5 [naltrexone] |  | 5.851 g/100 g of polymer | 3.067 g/100 g of polymer | major liver toxin | very few and minor side effects

From patent publication US9700552B2, “Pharmaceutical compositions for treatment of addiction” (priority 2008, dated 2017)
